Data published in patent US20080214399A1, “Enhanced amino acid formulations” (priority 2006, published 2008).

System: cotton cotyledons
Assay: Cotton cotyledon bioassay: reduction of CPPU-induced ethylene production
Assay type: in vivo, cotton (variety SG 105)
Conditions: CPPU (200 μM) alone, reference = 1.00
Experimental: A cotton bioassay system has been used in the laboratory to study the effect of formulations on AVG performance. […] One spray application of CPPU (forchlorfenuron) is made to the bottom (abaxial) and AVG was subsequently applied to the top (adaxial) surface of the cotyledons. […] Water was used as the carrier. Further dilutions were prepared as needed for foliar applications. All the data was subject to an analysis of variance, and the mean separations were determined with Duncan's new multiple range test at α=0.05. The present invention may be illustrated by the following representative examples: […]

Structure (SMILES): O=C(Nc1ccccc1)Nc1ccnc(Cl)c1 [CPPU, forchlorfenuron]
- Reduction as compared to CPPU-treated: 1.00
